Legend:
[1] = target: T1, KIT exon11 deletion (557-558) and secondary mutation T670I (Homo sapiens, UniProt P10721, DEL557-558/T670I); test: MTS viability assay, Ba/F3 expressing KIT exon11 deletion (557-558) and T670I; format: cell-based; details: 72 h, KIT exon11 deletion (557-558) plus secondary mutation, mean of at least 3 biological replicates
T1 construct: expressed in transfected cells; host or cells: Ba/F3 cells infected with lentivirus (pLVX-IRES Puro vector)
Description: (§1) 3 different KIT cDNA encoding for the exon11 deletion (557-558) and a secondary mutation (V654A, T670I, D816H) from Genescript were cloned into pLVX-IRES Puro vector(Clontech). Lentiviral particles were generated using Trans-lentiviral ORF packaging kit (TLP 5918) from Thermo Scientific (Waltham, Mass.) in HEK293-T/17 cells, according to the manufacturer's instructions.
(§2) Exponentially grown Ba/F3 cells (1.5×10^6 cells in 2 ml medium) were infected with 2 ml of viral suspension in a 6-well plate in the presence of mIL-3 (10 ng/ml) and polybrene (4 μg/ml) (Sigma Aldrich, St. Louis, Mo.) and incubated for 24 h. After 24 h, the cells were centrifuged and the viral supernatant was discarded. The cells were then re-suspended in fresh medium and allowed to recover for another day. The following day, the cells were seeded in complete medium without murine IL-3. After a week or two, when cells started proliferating, a selection was carried out by gradually increasing the puromycin concentration to 0.5 ug/ml. Once the cells were growing exponentially in puromycin, batches of cells were frozen down for banking.
(§3) The impact of KIT inhibitors on the viability of Ba/F3 expressing KIT mutations was determined using an MTS assay, which is a colorimetric sensitive quantification of viable cells in proliferation and cytotoxicity assay. In the MTS assay […] in the presence of phenazine methosulfate (PMS) was used. The mitochondrial reductase forms a formazan which absorbs at 490 nm. Cells in exponential growth phase were added to 384-well plates containing pre-dispensed compounds (top concentration 10 uM, 10-point curve). The cells were incubated for 72 h at 37° C. and 5% CO2. After 72 h, MTS reagent was added to the plates and incubated an additional 2 h at 37° C. before measuring the absorbance at 490 nm on a Tecan microplate reader using Magellan Software (Tecan Trading AG, Switzerland).
(§4) The absorbances were normalized as follows: (Read-Day0 control)/(Day3 control-Day0 control)*100. The GI50 values were generated using Genedata Screener software (Genedata; Lexington, Mass.). A non-linear regression with constraints for top and bottom between 100 and −100 and no constraint on the Hill coefficient was used to generate GI50 values. The GI50 values reported below are the calculated mean result of at least 3 biological replicates across all the cell lines tested.

[2] = system: Tel-KDR (KDR K790-V1356 fused to the C-terminus of Tel); test: MTS viability assay, Ba/F3 expressing Tel-KDR; format: cell-based; details: 72 h, Ba/F3 cells, mean of at least 3 biological replicates
Description: Tel-KDR myc was cloned into pBCS2004, a retroviral vector, wherein KDR (K790-V1356) is fused to the C-terminus of Tel. Retroviral particles were generated in HEK293T cells. The Tel-KDR plasmid was co-transfected with helper viruses (gag-Pol and VSV-G) into HEK293T cells using calcium phosphate and the virus was harvested 72 h after transfection.
as §2, §3, §4

Ba/F3-Parental = test: MTS viability assay, Ba/F3 parental cells; format: cell-based; details: Mus musculus, BaF3, 72 h, top concentration 10 uM, mean of at least 3 biological replicates
Description: as §3, §4

[3] = target: T2, KIT exon11 deletion (557-558) and secondary mutation V654A (Homo sapiens, UniProt P10721, DEL557-558/V654A); test: MTS viability assay, Ba/F3 expressing KIT exon11 deletion (557-558) and V654A; format: cell-based; details: 72 h, KIT exon11 deletion (557-558) plus secondary mutation, mean of at least 3 biological replicates
T2 construct: expressed in transfected cells; host or cells: Ba/F3 cells infected with lentivirus (pLVX-IRES Puro vector)
Description: as §1, §2, §3, §4

[4] = target: T3, KIT exon11 deletion (557-558) and secondary mutation D816H (Homo sapiens, UniProt P10721, D816H/DEL557-558); test: MTS viability assay, Ba/F3 expressing KIT exon11 deletion (557-558) and D816H; format: cell-based; details: 72 h, KIT exon11 deletion (557-558) plus secondary mutation, mean of at least 3 biological replicates
T3 construct: expressed in transfected cells; host or cells: Ba/F3 cells infected with lentivirus (pLVX-IRES Puro vector)
Description: as §1, §2, §3, §4

GIST [5] = details: PhIII study, patients with GIST after relapse to imatinib and sunitinib; cited from earlier work
GIST [6] = details: within 2 years; cited from earlier work

T1 sequence (P10721 with tags, fused parts or gaps DEL557-558/T670I): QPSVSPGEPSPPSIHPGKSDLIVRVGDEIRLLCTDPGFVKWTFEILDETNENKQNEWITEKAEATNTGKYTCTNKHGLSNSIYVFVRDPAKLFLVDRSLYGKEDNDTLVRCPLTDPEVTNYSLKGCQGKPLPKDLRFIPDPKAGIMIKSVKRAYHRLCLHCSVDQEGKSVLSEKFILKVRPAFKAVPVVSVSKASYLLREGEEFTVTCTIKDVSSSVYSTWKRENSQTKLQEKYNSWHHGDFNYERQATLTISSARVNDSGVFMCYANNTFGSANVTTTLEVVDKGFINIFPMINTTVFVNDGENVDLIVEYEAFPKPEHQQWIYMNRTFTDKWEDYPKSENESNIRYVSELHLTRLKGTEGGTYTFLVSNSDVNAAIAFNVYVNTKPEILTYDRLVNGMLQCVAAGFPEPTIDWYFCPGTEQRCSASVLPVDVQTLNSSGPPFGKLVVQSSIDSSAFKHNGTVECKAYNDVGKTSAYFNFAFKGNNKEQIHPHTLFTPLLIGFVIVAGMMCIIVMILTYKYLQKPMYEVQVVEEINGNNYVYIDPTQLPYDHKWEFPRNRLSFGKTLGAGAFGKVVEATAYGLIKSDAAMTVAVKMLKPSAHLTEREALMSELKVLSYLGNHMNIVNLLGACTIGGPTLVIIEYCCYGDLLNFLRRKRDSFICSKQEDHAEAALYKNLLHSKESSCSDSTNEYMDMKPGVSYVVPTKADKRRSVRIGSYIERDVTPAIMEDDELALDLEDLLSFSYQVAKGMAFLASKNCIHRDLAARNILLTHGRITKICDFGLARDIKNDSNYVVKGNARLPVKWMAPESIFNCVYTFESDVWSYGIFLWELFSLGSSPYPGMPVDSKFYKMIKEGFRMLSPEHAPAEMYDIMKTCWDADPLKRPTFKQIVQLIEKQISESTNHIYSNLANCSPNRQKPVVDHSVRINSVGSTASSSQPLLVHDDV
T2 sequence (P10721 with tags, fused parts or gaps DEL557-558/V654A): as the sequence (P10721 with tags, fused parts or gaps DEL557-558/T670I) above, with V627A, I643T counted along it
T3 sequence (P10721 with tags, fused parts or gaps DEL557-558/D816H): as the sequence (P10721 with tags, fused parts or gaps DEL557-558/T670I) above, with I643T, D789H counted along it

| SMILES | Ba/F3-T6701 GI50 [1] [nM] | GI50 [2] [nM] | GI50 (Ba/F3-Parental) [nM] | Ba/F3-V654A GI50 [3] [nM] | Ba/F3-D816H GI50 [4] [nM] | median PFS (GIST [5]) [months] | patients developed resistance (GIST [6]) [%] |
| --- | --- | --- | --- | --- | --- | --- | --- |
| COc1cc2c(Oc3ccc(NC(=O)Cn4cc(C(C)C)nn4)cc3)ncnc2cc1O[C@@H]1CCOC1 (single isomer, unassigned) [Example 12] | 23 | 840 | ≥ 10000 | 11 | 22 |  |  |
| COc1cc2c(Oc3ccc(NC(=O)Cn4cc(C(C)C)nn4)cc3)ncnc2cc1O[C@H]1CCOC1 (single isomer, unassigned) [Example 13] | 30 | 577 | ≥ 10000 | 13 | 24 |  |  |
| COc1cc2ncnc(Oc3ccc(NC(=O)Cn4cc(C(C)C)nn4)cc3)c2cc1OC [Example 1, N-(4-((6,7-Dimethoxyquinazolin-4-yl)oxy)phenyl)-2-(4-isopropyl-1H-1,2,3-triazol-1-yl)acetamide] | 17 | 600 | ≥ 10000 | 3 | 19 |  |  |
| COc1cc2ncnc(Oc3ccc(NC(=O)Cn4cc(C5CC5)nn4)cc3)c2cc1OC [Example 2, 2-(4-Cyclopropyl-1H-1,2,3-triazol-1-yl)-N-(4-((6,7-dimethoxyquinazolin-4-yl)oxy)phenyl)acetamide] | 68 | 1930 | ≥ 10000 | 4 | 95 |  |  |
| COc1cc(Oc2ncnc3cc(OC)c(OC)cc23)ccc1NC(=O)Cn1cc(C(C)C)nn1 [Example 3, N-(4-((6,7-Dimethoxyquinazolin-4-yl)oxy)-2-methoxyphenyl)-2-(4-isopropyl-1H-1,2,3-triazol-1-yl)acetamide] | 23 | 1080 | ≥ 10000 | 13 | 41 |  |  |
| COc1cc2ncnc(Oc3ccc(NC(=O)Cn4cc(C(C)C)nn4)cc3F)c2cc1OC [Example 4, N-(4-((6,7-Dimethoxyquinazolin-4-yl)oxy)-3-fluorophenyl)-2-(4-isopropyl-1H-1,2,3-triazol-1-yl)acetamide] | 8 | 142 | ≥ 10000 | 1 | 15 |  |  |
| COCCOc1cc2ncnc(Oc3ccc(NC(=O)Cn4cc(C(C)C)nn4)cc3)c2cc1OC [Example 5, 2-(4-Isopropyl-1H-1,2,3-triazol-1-yl)-N-(4-((6-methoxy-7-(2-methoxyethoxy)quinazolin-4-yl)oxy)phenyl)acetamide] | 11 | 289 | ≥ 10000 | 8 | 15 |  |  |
| COc1cc2c(Oc3ccc(NC(=O)Cn4cc(C(C)C)nn4)cc3)ncnc2cc1OCCN1CCCC1 [Example 6, 2-(4-Isopropyl-1H-1,2,3-triazol-1-yl)-N-(4-((6-methoxy-7-(2-(pyrrolidin-1-yl)ethoxy)quinazolin-4-yl)oxy)phenyl)acetamide] | 72 | 2770 | ≥ 10000 | 22 | 55 |  |  |
| COc1cc2c(Oc3ccc(NC(=O)Cn4cc(C(C)C)nn4)cc3)ncnc2cc1OCCN(C)C [Example 7, N-(4-((7-(2-(Dimethylamino)ethoxy)-6-methoxyquinazolin-4-yl)oxy)phenyl)-2-(4-isopropyl-1H-1,2,3-triazol-1-yl)acetamide] | 57 | 2520 | ≥ 10000 | 15 | 41 |  |  |
| COc1cc2c(Oc3ccc(NC(=O)Cn4cc(C(C)C)nn4)cc3)ncnc2cc1OCCO [Example 8, N-(4-((7-(2-Hydroxyethoxy)-6-methoxyquinazolin-4-yl)oxy)phenyl)-2-(4-isopropyl-1H-1,2,3-triazol-1-yl)acetamide] | 55 | 1160 | ≥ 10000 | 25 | 75 |  |  |
| COc1cc2c(Oc3ccc(NC(=O)Cn4cc(C(C)C)nn4)cc3)ncnc2cc1OC1CCOCC1 [Example 9, 2-(4-Isopropyl-1H-1,2,3-triazol-1-yl)-N-(4-((6-methoxy-7-((tetrahydro-2H-pyran-4-yl)oxy)quinazolin-4-yl)oxy)phenyl)acetamide] | 77 | 2110 | ≥ 10000 | 17 | 46 |  |  |
| COc1cc2c(Oc3ccc(NC(=O)Cn4cc(C(C)C)nn4)cc3)ncnc2cc1OC1COC1 [Example 10, 2-(4-Isopropyl-1H-1,2,3-triazol-1-yl)-N-(4-((6-methoxy-7-(oxetan-3-yloxy)quinazolin-4-yl)oxy)phenyl)acetamide] | 74 | 1840 | ≥ 10000 | 18 | 51 |  |  |
| COc1cc2c(Oc3ccc(NC(=O)Cn4cc(C(C)C)nn4)cc3)ncnc2cc1OC(C)C [Example 11, N-[4-(7-Isopropoxy-6-methoxy-quinazolin-4-yl)oxyphenyl]-2-(4-isopropyl-1H-1,2,3-triazol-1-yl)acetamide] | 57 | 903 | ≥ 10000 | 16 | 28 |  |  |
| CNC(=O)c1cc(Oc2ccc(NC(=O)Nc3ccc(Cl)c(C(F)(F)F)c3)c(F)c2)ccn1 [Regorafenib] |  |  |  |  |  | 4.8 |  |
| Cc1ccc(NC(=O)c2ccc(CN3CCN(C)CC3)cc2)cc1Nc1nccc(-c2cccnc2)n1 [imatinib, Imatinib] |  |  |  |  |  |  | 50 |

— patent US11053223B2, “Phenoxyquinazoline compounds and their use in treating cancer” (AstraZeneca AB, priority 2017, dated 2021)
